Test results taken from a melting point compilation (Tetko et al.; mined from patent text by program, amines drawn as free bases though some values may be those of a salt).

Q: Which melting point does the source give for `COc1cc(C=CC=C2SC(=O)NC2=O)cc(OC)c1OCc1ccccc1` here?
A: 217 to 218 °C

Q: Which melting point does the source give for `CCOC(=O)C1=C(C)Nc2nc(N3CCOCC3)nc(N3CCOCC3)c2C1c1ccccc1OC` (stereo not drawn) here?
A: 188 °C

Q: With `Oc1ccc2c(ccc3ccccc32)c1-c1c(O)ccc2c1ccc1ccccc12` as the molecule, how does the melting point read?
A: 244 to 245 °C

Q: With `Cn1cc(Cc2ccc(C(=O)N3CCC(N4CCCC4)C3)cc2)c2ccccc21` (stereo not drawn) as the molecule, how does the melting point read?
A: 73 to 78 °C

Q: For `CC(C)CCOC(=O)c1ccc2c(=O)c3ccccc3ccc2c1`, which melting point is on record?
A: 26 to 30 °C

Q: For `CCc1c(C(=O)C(C)C)c2ccc(-c3nnn[nH]3)cc2n1Cc1ccccc1Cl`, which melting point is on record?
A: 160 to 163 °C

Q: Which melting point does the source give for `CCCCc1oc2ccc(-c3nnn[nH]3)cc2c1C(=O)c1ccc(OCCCN(CCCC)CCCC)cc1` here?
A: 145 to 147 °C

Q: Which melting point does the source give for `CCOC(=O)c1c[nH]c(SC(F)(F)F)c1-c1ccc(Cl)cc1` here?
A: 162 to 164 °C

Q: For `CCCc1nn(-c2ccc(C(F)(F)F)cn2)cc1CCCCOc1ccc(CCC(=O)O)c(OC)c1`, which melting point is on record?
A: 91 to 92 °C

Q: With `CC1CN(c2ccccc2)N=C1NC(=O)C(F)(F)F` (stereo not drawn) as the molecule, how does the melting point read?
A: 142 to 144 °C

Q: Which melting point does the source give for `NC(=O)C(Cl)(Cl)CC1(c2cc(Cl)cc(Cl)c2)CO1` (stereo not drawn) here?
A: 130 to 133 °C

Q: Which melting point does the source give for `CCc1cc(-c2ccc(OC)cc2)n(-c2ccc(S(N)(=O)=O)cc2)c1` here?
A: 154 to 156 °C

Q: For `Cc1c(Br)c2c(c(C)c1NC(=O)CC(C)(C)C)C(c1ccc(C(C)C)cc1)CS2(=O)=O` (stereo not drawn), which melting point is on record?
A: 211 to 213 °C

Q: Which melting point does the source give for `Cc1ccc(C2CCCN2S(=O)(=O)c2ccc(Cl)cc2)cc1` (racemic) here?
A: 129 °C

Q: Which melting point does the source give for `Cc1ccc(S(=O)(=O)Nc2ccc(C3SC(=O)NC3=O)cc2)cc1` (stereo not drawn) here?
A: 215 to 218 °C

Q: Which melting point does the source give for `O=C(Nc1ccc(N2CCNCC2)c(C(F)(F)F)c1)c1ccc(F)c(OCc2cncc3ccccc23)c1` here?
A: 103 to 107 °C

Q: With `Cn1cc(Oc2ccc(Cl)c(Cl)c2)c(=O)c(-c2cccc(C(F)(F)F)c2)c1` as the molecule, how does the melting point read?
A: 127 to 129 °C

Q: For `CC(=O)c1c(C)[nH]c(C(C)CC(C)C)c1C` (stereo not drawn), which melting point is on record?
A: 140 to 142 °C

Q: For `COc1ccc(-c2cccc(F)c2)cc1`, which melting point is on record?
A: 63 to 64 °C

Q: For `CCOC(=O)c1c(O)c2cscc2[nH]c1=O`, which melting point is on record?
A: 193 °C

Q: For `CC(C)(C)OC(=O)N1CC2CC(CN(CCCOc3ccc(C#N)cc3O)C2)C1`, which melting point is on record?
A: 127 to 130 °C

Q: For `FC(F)(F)c1cc(Nc2cc[nH]n2)nc(-c2cccnc2)n1`, which melting point is on record?
A: 230 °C

Q: Which melting point does the source give for `Nc1ccccc1NC(=O)c1ccc(CNC(=O)c2[nH]c(-c3ccc(O)cc3)cc2-c2ccccc2)cc1` here?
A: 241 to 242 °C

Q: For `CC(C)OC(=O)C(C(=O)NCc1ccccc1)=C1SCS1`, which melting point is on record?
A: 93 to 94 °C

Q: Which melting point does the source give for `CCc1c(C(=O)c2cc(C)cc(C)c2)n(CC2CC=CC2)c(=O)[nH]c1=O` here?
A: 209 to 210 °C

Q: With `Cc1ccccc1SN(C)C(=O)Oc1cccc2c1OC(C)(C)C2` as the molecule, how does the melting point read?
A: 78 °C

Q: For `O=C(c1ccc(-c2ccc(CBr)cc2)cc1)c1ccc(Cl)cc1Cl`, which melting point is on record?
A: 92 °C

Q: Which melting point does the source give for `Nc1ccc(N2CCN(CCCN3c4cccc5cccc(c45)S3(=O)=O)CC2)cc1` here?
A: 113 °C

Q: Which melting point does the source give for `CN1CCC(Sc2ccccc2)C(C#N)C1` (stereo not drawn) here?
A: 114 °C

Q: Which melting point does the source give for `COc1cc(OC)cc(-c2oc3ncnc(Cl)c3c2-c2ccccc2)c1` here?
A: 138 to 140 °C

Q: With `CN(C(=O)C1c2ccccc2COc2ccc(Br)cc21)c1ccccc1` (stereo not drawn) as the molecule, how does the melting point read?
A: 148 °C

Q: Which melting point does the source give for `O=[N+]([O-])c1cc(Cl)cc2c1OCCO2` here?
A: 135 to 137 °C

Q: Which melting point does the source give for `CCOC(=O)C(=NNc1ccc(Cl)cc1)C(C)=O` here?
A: 84 to 85 °C

Q: Which melting point does the source give for `C=C(C)c1ccc2c(c1)C(=O)c1ccccc1C2=O` here?
A: 126 °C

Q: With `COc1ccccc1C(=CC=O)c1ccccc1OC` as the molecule, how does the melting point read?
A: 59.5 to 61.5 °C

Q: With `O=C1NC(=O)C(c2ccc(OCCC(c3ccccc3)(c3ccccc3)c3ccccc3)cc2)S1` (stereo not drawn) as the molecule, how does the melting point read?
A: 85 to 87 °C

Q: Which melting point does the source give for `CON1CCC2(CC1)NC(=O)C(c1cc(-c3ccc(Cl)cc3)c(F)cc1C)=C2OC(=O)C(C)(C)C` here?
A: 150 to 151 °C

Q: With `COc1cccc(C23CCCC=C2C(=O)NC(=O)C3)c1` (stereo not drawn) as the molecule, how does the melting point read?
A: 230 to 232 °C

Q: Which melting point does the source give for `Cc1cc(C2=NN(C(=S)NN)[C@H](C)Cc3cc4c(cc32)OCO4)ccc1[N+](=O)[O-]` here?
A: 109 to 115 °C

Q: Which melting point does the source give for `CC(=O)Cn1nc(C)oc1=O` here?
A: 55 to 58 °C

Q: Which melting point does the source give for `Cc1ncc([N+](=O)[O-])n1CCN1C(=O)NC(c2ccccc2)(c2ccccc2)C1=O` here?
A: 209 to 210 °C

Q: With `CC(C)(CCc1noc(=O)[nH]1)c1ccc(C(=O)Nc2cn3cc(-n4ccnc4)ccc3n2)cc1` as the molecule, how does the melting point read?
A: 283 to 284 °C

Q: Which melting point does the source give for `CCC(CC)NC(=O)c1cc(-c2cnc3[nH]cc(C(=O)C4(C)CCCCC4)c3n2)cs1` here?
A: 273 to 275 °C

Q: With `O=[N+]([O-])c1ccc(F)c(-c2cccnc2)c1F` as the molecule, how does the melting point read?
A: 68 to 70 °C

Q: With `CCC(C)(CC)c1nnc(N)s1` as the molecule, how does the melting point read?
A: 138 to 140 °C

Q: Which melting point does the source give for `Cc1cc(N2C(=O)N(CCCCCN3C(=O)N(c4ccc([N+](=O)[O-])c(C)c4)C(=O)C3(C)C)C(C)(C)C2=O)ccc1[N+](=O)[O-]` here?
A: 130 to 131 °C

Q: With `Nc1nc(NCCO)c2ncn(C3C=CC(CO)C3)c2n1` (stereo not drawn) as the molecule, how does the melting point read?
A: 150 to 152 °C

Q: For `Cc1cc(C)cc(C(=O)N2CCNC(c3ccc(Cl)c(Cl)c3)C2)c1` (single isomer, unassigned; (+)), which melting point is on record?
A: 97 to 100 °C
